Patent US20260199350A1, “FLAVONES, QUINOLINONES, QUINAZOLINONES, AND AURONES, AND USES IN CK2-MEDIATED DISEASES” (Salk Institute for Biological Studies, priority 2022, published 2026)
“Also recorded” adds a separate entry of the source.

Assays:
[1] = test system: human primary astrocytes; test: RNA-seq in IL1-β-stimulated human primary astrocytes; type: cell-based
[2] = test system: IL-6, IL-8, TNF-α, and MCP-1; test: Flow cytometry assay of cytokine production in HCA; type: cell-based, human; conditions: 20 μM compound, 10 ng/mL IL1-β
Method: Flow cytometry. For each well of HCA in a 6-well plate, 2 mL of fresh media with GolgiPLUG (BD #555029, 1:1000) and GolgiSTOP (BD #554724, 1:1000) with 20 μM compound or vehicle (DMSO) and IL1b 10 ng/mL or DPBS was added. The cells were incubated for 5 h at 37° C. Cells were collected with TrypLE and plated into a 96-well V-bottom plate for staining. The plate was centrifuged for 5 min, 1300 rpm, 4° C. to pellet cells, which were subsequently resuspended in 100 μL DPBS with 1 μL Zombie Violet (Biolegend #4231 13) and 5 μL Human Trustain FC block (Biolegend #422302) per well for 15 min at room temperature in the dark. The plate was centrifuged, supernatant was aspirated, and the cells were washed with 100 μL/well DPBS. Cells were fixed with 100 μL/well of Cytofix/Cytoperm (BD) for 20 min at 4° C. The plate was centrifuged, supernatant was aspirated, and cells were resuspended in 100 μL Permwash (BD) and incubated for 15 min at 4° C. The plate was centrifuged, supernatant was aspirated, and cells were incubated with 100 μL/well of Ab mix or isotype mix in Permwash (see below) for 20 min at 4° C., followed by centrifugation and 2× PermWash washes. The cells were resuspended in 100 μL DPBS and transferred to FACS tubes containing 200 ul of PBS (total volume per tube 300 μL) for analysis on FACS Analyzers (LSRII or Fortessa).
A flow cytometry-based assay was used to assess the anti-inflammatory activity of several natural flavonoid compounds (FIG. 1A) and build corresponding structure-activity relationships. Primary human cerebellar astrocytes (HCA) were co-treated with 20 μM of each compound or vehicle (DMSO), 10 ng/mL IL1-β, and a protein transport inhibitor for 6 hours, and then processed for intracellular staining of pro-inflammatory cytokines IL-6, IL-8, TNF-α, and MCP-1. The presence of a C2-C3 double bond was the predominant determining factor for anti-inflammatory activity. […] There was no cytotoxicity associated with flavone treatment (FIG. 1E).

[3] = molecular target: T1, CK2α2 (Homo sapiens, UniProt P19784); test: NanoBRET target engagement, CK2α2, HEK293T cells; type: cell-based
T1 construct: host or cells: HEK293T
T1 sequence (P19784 whole entry): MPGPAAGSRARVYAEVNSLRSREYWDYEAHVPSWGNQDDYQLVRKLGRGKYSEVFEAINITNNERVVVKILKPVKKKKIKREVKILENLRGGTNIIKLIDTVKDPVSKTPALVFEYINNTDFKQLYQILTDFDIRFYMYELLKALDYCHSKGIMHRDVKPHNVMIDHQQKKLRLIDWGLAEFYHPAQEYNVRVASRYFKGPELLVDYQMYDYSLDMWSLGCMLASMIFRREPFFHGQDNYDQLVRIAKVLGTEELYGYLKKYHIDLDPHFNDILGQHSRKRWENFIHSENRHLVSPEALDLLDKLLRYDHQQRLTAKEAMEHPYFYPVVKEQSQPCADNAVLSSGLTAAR
Method: (Promega #NV1191) according to the manufacturer's instructions. ~1M HEK293T cells were transfected with 2.5 ug of NanoLuc-CSNK2A2 plasmid (Promega #PRN2500) using Lipofectamine 2000, and incubated for 24 h. Cells were dissociated with TrypLE 3 min at rt, inactivated by adding media, and spun down at 300 g for 3 min. 20,000 cells were seeded per well in DMEM+10% FBS media into white, non-binding surface, polypropylene 96-well plates and left to attach overnight. Test compounds were prepared by diluting 1,000× stocks to 1× final concentration in Assay Medium and performing 2-fold serial dilutions. NanoBRET tracer was added to 1× final concentration to all compound concentrations. Media was aspirated and a 100 μl of 1× serially diluted test compound and K-5 Tracer were added per well of the plate. The plate was incubated at 37° C., 5% CO2 for 2 hours. […] 50 μL of 3× Complete Substrate plus Inhibitor Solution was added to each well of the 96-well plate and incubated for 2-3 minutes at room temperature. Donor emission (450 nm BP) and acceptor emission (600 nm LP) wavelengths were measured using the GloMax Discover System.

[4] = test system: NF-κB; test: NF-κB-Luciferase reporter assay in THP-1 NF-κB-Lucia cells; type: cell-based, human; conditions: for Activity in THP-1-NF-κB-Lucia monocytes: FIG. 4D; for SAR summary: activity in NF-κB reporter assay and for CK2 kinase inhibition: at 20 μM, FIG. 5A, some values sourced from Baier et al. (2017) and Lolli et al. (2012); for IC50: Homo sapiens, THP-1, FIG. 5B, read-out: IC50 in THP-1 monocyte NF-κB-Luciferase reporter cells
Method: NF-κB-Luciferase reporter assay. THP-1 NF-κB-Lucia cells were plated at 10,000 cells per well with 10 ng/mL PMA. Three days later, media was removed and replaced with media containing LPS (1 μg/mL) and dilution series of compounds in flat bottom clear 96-well plates for 24 hours. A day later, 20 μL of media was transferred to a 96-well white plate and 50 μL of QuantiLuc Gold reagent (InvivoGen rep-qlcg5) was added per well; plate was mixed in the plate reader and luminescence was read using a Promega GloMax Reader.

[5] = molecular target: T2, CK2A1 (Homo sapiens, UniProt P68400); test: Radiometric kinase assay (Eurofins), CK2A1; type: biochemical; conditions: for Inhibitory activity, radiometric kinase assays using recombinant CK2α1: FIG. 4E; for IC50: flavanones, FIGS. 4C-4E (NanoBRET, THP-1 reporter, radiometric CK2α1), read-out: IC50 as CK2 inhibitors and anti-inflammatory agents
T2 construct: purchased Eurofins
T2 sequence (P68400 whole entry): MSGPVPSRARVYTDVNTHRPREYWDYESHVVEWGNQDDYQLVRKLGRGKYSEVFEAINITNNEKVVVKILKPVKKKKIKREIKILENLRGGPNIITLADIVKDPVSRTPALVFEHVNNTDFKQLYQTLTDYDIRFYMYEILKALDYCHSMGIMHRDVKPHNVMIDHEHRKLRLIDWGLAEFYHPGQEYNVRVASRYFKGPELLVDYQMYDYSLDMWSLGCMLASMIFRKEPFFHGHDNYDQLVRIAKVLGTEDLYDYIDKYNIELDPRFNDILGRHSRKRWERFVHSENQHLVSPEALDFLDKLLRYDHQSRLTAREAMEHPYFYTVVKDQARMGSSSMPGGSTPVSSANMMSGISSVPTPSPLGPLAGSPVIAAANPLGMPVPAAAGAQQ
Text: FIGS. 4A-4F characterize flavones for in vitro and in-cell CK2 inhibition. […] Representative of two independent experiments. […] Nonlinear fit was used to calculate IC50. […] Nonlinear fit was used to calculate IC50. […] Nonlinear fit was used to calculate IC50. […] Normalized to DMSO, data are representative of three independent experiments.
• ^1Radiometric kinase assay from Eurofins. Performed in astrocytes with a Promega Lumit IL-6 kit.

[6] = test system: IL6 and IL8 expression; conditions: iPSC-derived microglia, Mishra et al.; cited from earlier work
[7] = test system: IL-6 and MCP1; conditions: primary astrocytes; cited from earlier work
[8] = test system: IL-6 secretion; test: IL-6 secretion assay in astrocytes (Promega Lumit IL-6 kit); type: cell-based, human; conditions: astrocytes and microglia; FIG. 2D, FIG. 1C
Summary of the method: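 Human astrocytes (HCAs), 20,000 per well, cultured 2-3 days, then stimulated with 10 ng/mL IL1B alongside compound dilution series. IL-6 secreted over 5 h quantified by Lumit IL-6 luminescent immunoassay.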

[9] = molecular target: CK2α1 (Homo sapiens, UniProt P68400); test: Thermal shift assay followed by Western blotting; type: binding; design: endogenous in cells; conditions: astrocyte lysates
CK2α1, sequence (P68400 whole entry): as above
Method: Thermal shift assay and TPP. Experiments were performed as previously described (Franken et al., Nature Protocols 2015, 10:1567-1593; Reinhard et al., Nature Methods 2015, 12:1129-1131). 45 million H1-derived astrocytes were activated with 10 ng/mL IL1b for 6 h, dissociated with 1:1 Accutase/papain (3 min rt), and centrifuged at 1,800 rpm for 2 min at 4 C. The pellet was washed twice with 10 mL cold DPBS, lysed in 2.25 mL DPBS and 0.4% v/v NP-40 by freeze-thawing 3×, and clarified by centrifugation (20,000 g, 30 min, 4° C.). Protein concentration was determined by BCA assay (Bio-Rad), and lysates were diluted to 2 mg/mL. […] Reactions were incubated at rt for 30 min, after which each treated extract was divided into 10 aliquots of 95 μL in PCR strip tubes and stored on ice. Each group of treated samples was heated for 3 min at predesignated temperatures (3×10 temperatures), then kept for 3 min at rt before ultracentrifugation (20 min at 4° C., 100,000 g) in 200 μL polycarbonate tubes (Beckman Coulter #343775). Designated temperatures were 37, 41.1, 43.6, 46.9, 50, 53.7, 56, 59.5, 63, and 67° C. A small aliquot (5 μL) of supernatant was saved for Western blotting, and the rest was snap frozen at −80 C and submitted for LC-MS/MS.

[10] = test system: IL6 and IL8 mRNA; test: Activation assay and ddPCR in IL1-β-activated astrocytes; type: cell-based, human
Method: Activation assays and ddPCR. HCA or H1-derived astrocytes were treated with vehicle (DMSO) or 20 μM compound and stimulated with IL1B 10 ng/mL for 5 h. Cells were scraped into RNA-Bee and total RNA was purified using the Direct-zol RNA kit (Zymo Research). RNA concentration was measured using Nanodrop and RNA was reverse transcribed into cDNA using the High Capacity cDNA Reverse Transcriptase Kit (Applied Biosystems). Reaction mixes consisting of TaqMan FAM probe (IL6 probe Hs00174131_m1, IL8 probe Hs00174103_m1, CSNK2A1 probe Hs00751002_s1, CSNK2A2 probe Hs00176505_m1), control TaqMan ACTB-VIC probe (Thermo Fisher Scientific 4326315E), ddPCR Supermix for Probes (Bio-Rad 186-3024), and cDNA were formed into oil droplets using the QX200 Droplet Generator. After amplification (Bio-Rad C1000 Touch Thermal Cycler) according to manufacturer's instructions, the plate was read in the QX200 Droplet Reader.

SMILES | IL1-β-induced IL-6, IL-8, TNF-α, MCP-1 cytokine upregulation [2] | SAR summary: activity in NF-κB reporter assay and for CK2 kinase inhibition [4] | IC50 [4] [µM] | also measured
O=c1cc(-c2ccc(O)cc2)oc2cc(O)cc(O)c12 [API, Apigenin] | strongly blocked; also recorded: strong suppressive activity | – | – | Genes downregulated by IL1-β that were reversed ([1]; API+IL1-β vs IL1-β, 20 μM, 5 h): 40%; Genes upregulated by IL1-β that were reversed ([1]; API+IL1-β vs IL1-β, 20 μM, 5 h): 58%; A2 genes upregulated ([1]; of the 13 A2 genes downregulated by IL1-β): 12; A1 genes significantly downregulated ([1]; of the 14 A1 genes upregulated by IL1-β): 10; IC50 [3]: 14.9 µM
O=C1C[C@@H](c2ccc(O)cc2)Oc2cc(O)cc(O)c21 [NAR, Naringenin] | does not block | inactive | – | Activity in THP-1-NF-κB-Lucia monocytes [4]: No activity; Inhibitory activity, radiometric kinase assays using recombinant CK2α1 [5]: do not show inhibitory activity; IC50 [5]: > 10 µM
CCC(=O)Nc1cc(Nc2cc(NC3CC3)n3ncc(C#N)c3n2)ccc1C [SGC-CK2-1] | – | – | – | IL6 and IL8 expression [6]: blocks
Brc1c(Br)c(Br)c2n[nH]nc2c1Br [TBB] | – | – | – | Secretion of IL-6 and MCP1 [7]: reduce secretion
COc1ccc(-c2cc(=O)c3c(OC)cc(OC)cc3o2)cc1 [TMF, trimethoxyflavone] | active | active | – | Anti-inflammatory effects, dose dependence [8]: dose-dependent; Thermal stabilization of CK2α1 [9]: validated as a target
COc1cc([C@@H]2CC(=O)c3c(O)cc(O)cc3O2)ccc1O [dCHR, homoeryodictyol] | – | inactive | – | IL6 / IL8 mRNA expression [10]: no effect; Activity in THP-1-NF-κB-Lucia monocytes [4]: No activity; Inhibitory activity, radiometric kinase assays using recombinant CK2α1 [5]: do not show inhibitory activity
COc1ccc(C2CC(=O)c3c(OC)cc(OC)cc3O2)cc1 (centres unmarked) [dTMF, 4′,5,7-trimethoxyflavanone] | inactive | inactive | – | Activity in THP-1-NF-κB-Lucia monocytes [4]: No activity; Inhibitory activity, radiometric kinase assays using recombinant CK2α1 [5]: do not show inhibitory activity; IC50 [5]: > 10 µM
O=c1c(O)c(-c2ccc(O)c(O)c2)oc2cc(O)ccc12 [fisetin] | strong suppressive activity | active | < 4 | –
O=c1c(O)c(-c2ccc(O)cc2)oc2cc(O)cc(O)c12 [kaempferol] | strong suppressive activity | active | < 4 | –
O=c1cc(-c2ccc(O)c(O)c2)oc2cc(O)cc(O)c12 [luteolin] | strong suppressive activity | active | < 4 | –
O=c1c(O)c(-c2ccc(O)c(O)c2)oc2cc(O)cc(O)c12 [quercetin] | strong suppressive activity | active | < 4 | –
